Data: patent US4156731A, “Heterocyclic oxime compounds and carbamoyloxime derivatives” (priority 1976, dated 1979)

Assays:
[1] = tested on: bean aphid (Aphis fabae Scop.); assay: Bean Aphid Foliage Spray Test; format: in vivo; design: key: A: Excellent control; B: Partial control; C: No control; conditions: 500 ppm foliage spray, 24 hour holding period
Procedure: (§1) Selected species of the new compounds were evaluated to determine their pesticidal activity against mites and certain insects, including anaphid, a caterpillar, a beetle and a fly.
(§2) Suspensions of the test compounds were prepared by dissolving one gram of compound in 50 milliliters of acetone in which had been dissolved 0.1 gram (10 percent of the weight of compound) of an alkylphenoxy polyethoxyethanol surfactant, as an emulsifying or dispersing agent. The resulting solution was mixed into 150 milliliters of water to give roughly 200 milliliters of a suspension containing the compound in finely divided form. The thus-prepared stock suspension contained 0.5 percent by weight of test compound. The test concentrations in parts per million by weight employed in the tests described hereinbelow were obtained by appropriate dilutions of the stock suspension with water. The test procedures were as follows:
Bean Aphid Foliage Spray Test
Adults and nymphal stages of the bean aphid (Aphis fabae Scop.) reared on potted dwarf nasturtium plants at 65°-70° F. and 50-70 per cent relative humidity, constituted the test insects. For testing purposes, the number of aphids per pot was standardized to 100-150 by trimming plants containing excess aphids.
The test compounds were formulated by diluting the stock suspension with water to give a suspension containing 500 parts of test compound per million parts of final formulation.
The potted plants (one pot per compound tested) infested with 100-150 aphids, were placed on a revolving turntable and sprayed with 100-110 milliliters of test compound formulation by use of a DeVilbiss spray gun set at 40 psig. air pressure. This application, which lasted 25 seconds, was sufficient to wet the plants to run-off. As a control, 100-110 milliliters of a water-acetone-emulsifier solution containing no test compound were also sprayed on infested plants. After spraying, the pots were placed on their sides on a sheet of white standard mimeograph paper which had been previously ruled to facilitate counting. Temperature and humidity in the test room during the 24 hour holding period were 65°-70° F. and 50-70 per cent, respectively. Aphids which fell into the paper and were unable to remain standing after being uprighted were considered dead. Aphids remaining on the plants wre observed closely for movement and those which were unable to move the length of the body upon stimulator by prodding were considered dead. Per cent mortality was recorded for various concentration levels.
(§3) In these tests the pesticidal activity of the compounds against aphid, mite, Southern Armyworm, Mexican Bean Beetle, and house fly was rated as follows: […]

[2] = tested on: two spotted mite (Tetranychus urticae Koch); assay: Mite Foliage Spray Test; format: in vivo; design: key: A: Excellent control; B: Partial control; C: No control; conditions: 500 ppm foliage spray, six days
Procedure: as §1, §2
Adults and nymphal stages of the two spotted mite (Tetranychus urticae Koch), reared on Tendergreen bean plants at 80±5 per cent relative humidity, were the test organisms. Infested leaves from a stock culture were placed on the primary leaves of two bean plants six to eight inches in height, growing in a two-and-a-half inch clay pot. 150-200 mites, a sufficient number for testing, transferred from the excised leaves to the fresh plants in a period of twenty four hours. Following the twenty four hour transfer period, the excised leaves were removed from the infested plants. The test compounds were formulated by diluting the stock suspension with water to give a suspension with water to give a suspension containing 500 parts of test compound per million parts of final formulation. The potted plants (one pot per compound) were placed on a revolving turntable and sprayed with 100-110 milliliters of test compound formulation by use of a DeVilbiss spray gun set at 40 psig. air pressure. This application, which lasted for 25 seconds, was sufficient to wet the plants to run-off. As a control, 100-110 milliliters of a water solution containing acetone and emulsifier in the same concentrations as the test compound formulation, but containing no test compound, were also sprayed on infested plants. The sprayed plants were held at 80±5 per cent relative humidity for six days, after which a mortality count of motile forms were made. Microscopic examination for motile forms was made on the leaves of the test plants. Any individual which was capable of locomotion upon prodding, was considered living.
as §3

[3] = tested on: southern armyworm (Prodenia Eridania, (Cram.)); assay: Southern Armyworm Leaf Spray Test; format: in vivo; design: key: A: Excellent control; B: Partial control; C: No control; conditions: larvae, 500 ppm leaf spray, three days
Procedure: as §1, §2
Southern Armyworm Leaf Spray Test
Larvae of the southern armyworm (Prodenia Eridania, (Cram.), reared on Tendergreen bean plants at a temperature of 80°±5° F. and a relative humidity of 50±5 per cent, constituted the test insects.
The test compounds were formulated by diluting the stock suspension with water to give a suspension containing 500 parts of test compound per million parts of final formulation. Potted Tendergreen bean plants of standard height and age were placed on a revolving turntable and sprayed with […] of test compound formulation by use of a DeVilbiss spray gun set at 10 psig. air pressure.
This application, which lasted 25 seconds, was sufficient to wet plants to run-off. As a control, 100-110 milliliters of a water-acetone-emulsifier solution containing no test compound were also sprayed on infested plants. When dry, the paired leaves were separated and each one was placed in a 9 centimeter Petric dish lined with moistened filter paper. Five randomly selected larvae were introduced into each dish and the dishes were closed. The closed dishes were labeled and held at 80°-85° F. for three days. Although the larvae could easily consume the whole leaf within twenty-four hours, no more food was added. Larvae which were unable to move the length of the body, even upon stimulation by prodding, were considered dead. Per cent mortality was recorded for various concentration levels.
as §3

[4] = tested on: Mexican bean beetle (Epilachna varivestis, Muls.); assay: Mexican Bean Beetle Leaf Spray Test; format: in vivo; design: key: A: Excellent control; B: Partial control; C: No control; conditions: fourth instar larvae, 500 ppm leaf spray, three days
Procedure: as §1, §2
Mexican Bean Beetle Leaf Spray Test
Fourth instar larvae of the Mexican bean beetle (Epilachna varivestis, Muls.), reared on Tendergreen bean plants at a temperature of 80°±5° F. and 50±5 per cent relative humidity, were the test insects.
The test compounds were formulated by diluting the stock suspension with water to give a suspension containing 500 parts of test compound per million parts of final formulation. Potted Tendergreen bean plants of standard height and age were placed on a revolving turntable and sprayed with 100-110 milliliters of test compound formulation by use of DeVilbiss spray gun set at 10 psig air pressure. This application, which lasted 25 seconds, was sufficient to wet plants to run-off. As a control, 100-110 milliliters of a water-acetone-emulsifier solution containing no test compound were also sprayed on infested plants. When dry, the paired leaves were separated and each was placed in a 9 centimeter Petri dish lined with moistened filter paper. Five randomly selected larvae were introduced into each dish, and the dishes were closed. The closed dishes were labeled and held at a temperature of […]. for three days. Although the larvae could easily consume the leaf within 24 to 48 hours, no more food was added. Larvae which were unable to move the length of the body, even upon stimulation, were considered dead.
as §3

[5] = tested on: house flies (Musca domestica, L.); assay: Fly Bait Test; format: in vivo; design: key: A: Excellent control; B: Partial control; C: No control; conditions: adults, 500 ppm in sugar bait, twenty four hours
Procedure: as §1, §2
Four to six day old adult house flies (Musca domestica, L.) reared according to the specifications of the Chemical Specialities Manufacturing Association (Blue Book, McNair-Dorland Co., NY., 1954; pages 234-244, 261) under controlled conditions of 80°±5° F. and 50±5 per cent relative humidity, were the test insects. The flies were immobilized by anesthetizing with carbon dioxide and twenty five immobilized individuals, males and females, were transferred to a cage consisting of a standard food stainer about five inches in diameter which was inverted over a wrapping-paper-covered surface. The test compounds were formulated by diluting the stock suspension with a 10 per cent (by weight) sugar solution to give a suspension containing 500 parts of test compound per million parts of final formulation, by weight. Ten milliliters of the test formulation were added to a souffle cup containing a one inch square of an absorbent cotton pad. This bait cup was introduced and centered on the blotting paper under the food strainer prior to admitting the anesthetized flies. The caged flies were allowed to feed on the bait for twenty four hours, at a temperature of 80°±5° F. and the relative humidity of 50±5 per cent.
as §3

[6] = Peroral toxicity to mammals (rat); conditions: in vivo, po, mortality rate of 50 percent, read-out: A. O. Rat LD50
Procedure: Certain of these compositions were also evaluated to determine their peroral toxicity to mammals. The animal selected for this experiment was the rat.

CNC(=O)ON=C1SC(=NC(C)(C)C)SC1(C)C [L]
Bean Aphid pesticidal activity rating [1]: A | Mite pesticidal activity rating [2]: A | Southern Armyworm pesticidal activity rating [3]: B | Mexican Bean Beetle pesticidal activity rating [4]: A | House-Fly pesticidal activity rating [5]: A | LD50 [6]: 31.5 mg/kg

CC(C)N=C1SC(=NOC(=O)N(C)SN(C)C(=O)ON=C2SC(=NC(C)C)SC2(C)C)C(C)(C)S1 [XLIV, N,N'-Bis-[[5,5-Dimethyl-2-isopropylimino-4-[O-(N-methylcarbamoyl)oximino]-1,3-dithiolane]] sulfide]
Bean Aphid pesticidal activity rating [1]: B | Mite pesticidal activity rating [2]: C | Southern Armyworm pesticidal activity rating [3]: C | Mexican Bean Beetle pesticidal activity rating [4]: A | House-Fly pesticidal activity rating [5]: B | LD50 [6]: 113 mg/kg

CC(C)N=C1SC(=NOC(=O)N(C)SC(Cl)(Cl)Cl)C(C)(C)S1 [XLVIII]
Bean Aphid pesticidal activity rating [1]: A | Mite pesticidal activity rating [2]: A | Southern Armyworm pesticidal activity rating [3]: C | Mexican Bean Beetle pesticidal activity rating [4]: A | House-Fly pesticidal activity rating [5]: A | LD50 [6]: 226 mg/kg

CNC(=O)ON=C1SC(=NC(C)C)SC1(C)C [XLVII]
Bean Aphid pesticidal activity rating [1]: A | Mite pesticidal activity rating [2]: A | Southern Armyworm pesticidal activity rating [3]: C | Mexican Bean Beetle pesticidal activity rating [4]: A | House-Fly pesticidal activity rating [5]: A | LD50 [6]: 8.9 mg/kg

CCN=C1SC(=NOC(=O)NC)C(C)(C)S1 [XLVI]
Bean Aphid pesticidal activity rating [1]: A | Mite pesticidal activity rating [2]: C | Southern Armyworm pesticidal activity rating [3]: B | Mexican Bean Beetle pesticidal activity rating [4]: A | House-Fly pesticidal activity rating [5]: A | LD50 [6]: 6.3 mg/kg
